Laboratory results reported in US20050220726A1, “Use of sugar esters in cosmetic and/or pharmaceutical preparations” (priority 2003, published 2005).

Legend:
Experiment in all cases: Agar diffusion method, inhibition zones
Type in all cases: cell-based
[1] = test system: Staphylococcus aureus; settings: filter paper with 20 μl test substance; 18 to 24 h at 37° C.
Method: (§1) The antibacterial activity of the test substances was tested by the diffusion method on agar plates or the agar dilution method. In this method, a round filter paper of defined diameter is first impregnated with the test solution and then applied to the surface of an agar plate inoculated beforehand with the test microorganisms. The size of the inhibition zones is then determined after defined times. In particular, it is possible by this method to determine the MIC (Minimum Inhibitory Concentration) as the lowest concentration of test substance with which complete inhibition of the microorganisms can be obtained.
(§2) Agar diffusion method. The inoculum was prepared using a fresh culture in a stationary growth phase (after ca. 18-24 h) in a BHI solution (brain-heart Infusion). The bacterial suspension was adjusted to 0.5 MacFarland units, corresponding to 1.5 10^8 colony-forming units (cfu)/ml; the suspension was then diluted with a sodium chloride solution (1:100) to adjust a value of 1.5 10^6 cfu/ml. Mueller-Hinton agar (Staphylococcus epidermidis, Staphylococcus aureus) and Wilkins-Chalgrens agar containing 5% by weight sheep's blood (Propionibacterium acnes) were then sterilized for 15 mins. at 121° C. and then placed in Petri dishes. 2 to 4 ml of the bacterial suspension were then added to the Petri dishes, followed by drying at room temperature. The filter papers were impregnated with 20 μl of the test substances and applied to the surface of the agar plates. The inoculated Petri dishes were incubated for 18 to 24 h at 37° C. (the Petri dishes containing Propionibacterium acnes under anaerobic conditions) and the antimicrobial activity was then determined by determination of the growth inhibition zones. The results are set out in Table 10 and represent the diameters of the inhibition zones in mm.

[2] = test system: Propionibacterium acnes; settings: filter paper with 20 μl test substance; 18 to 24 h at 37° C., anaerobic
Method: as §1, §2

[3] = test system: Staphylococcus epidermidis; settings: filter paper with 20 μl test substance; 18 to 24 h at 37° C.
Method: as §1, §2

Fructose caprate
Inhibition zones, Staphylococcus aureus [1]: 10 mm | Inhibition zones, Propionibacterium acnes [2]: 14 mm | Inhibition zones, Staphylococcus epidermidis [3]: 9 mm
